Tests used:
[1] = system: IL-13 induced goblet cell hyperplasia in NHBE cells; test: In vitro model of IL-13 induced goblet cell hyperplasia, ALI-conditioned NHBE cells; format: cell-based, human
Source text: Globlet cells are columnar epithelial cells whose sole function is to secrete mucin, which dissolves in water to form mucus. […] An in vitro model of goblet cell hyperplasia was developed using normal human bronchial epithelial (NHBE) cells cultured under air-liquid interface (ALI) conditions.

[2] = system: steroid-dependent asthma patients; settings: orally administered dapsone; cited from earlier work
[3] = system: NF-κB p65 phosphorylation in NHBE cells; test: LPS-induced phosphorylation of NF-κB p65 (Western blotting); format: cell-based, human
Protocol: After stimulation, the plated cells were washed with cold PBS, and then lysed on ice in a modified radio immunoprecipitation buffer (1% Nonidet P-40, 1% sodium deoxycholate, 150 mM NaCl, 10 mM Tris pH 7.5, 5 mM sodium pyrophosphate, 1 mM NaVO4, 5 mM NaF, 1 μg/ml aprotinin, 1 μg/ml leupeptin, and 0.1 mM PMSF) for 15 min and then scraped from the dishes. DNA was sheared by passing the lysate though a 27-gauge needle, and insoluble material was removed by centrifugation at 20,000 g for 15 min at 4° C. The protein concentration of the resulting supernatant was quantified by the DC protein assay (Bio-Rad, Hercules, Calif.). Equal amounts of protein extracts were loaded on a 12% SDS-PAGE mini gel and transferred to a nitrocellulose membrane (Bio-Rad). Membranes were blocked with blocking buffer (150 mM NaCl, 20 mM Tris, and 0.1% Tween 20, pH 7.6) containing 5% nonfat dry milk at 4° C. overnight. Subsequently, membranes were rinsed and incubated with the primary antibody: phospho (p)-p44/42 MAPK (Thr202/Tyr204) (diluted 1:2000), p-p38 MAPK (Thr180/Tyr182) (diluted 1:1000), p-SAPK/JNK (Thr183/Tyr185) (diluted 1:1000), or p-NF-κB p65 rabbit polyclonal IgG (diluted 1:1000) (Cell Signaling Technology), for 2 h at room temperature. The membranes were then incubated at room temperature for 1 h with the anti-rabbit IgG HRP secondary antibody (diluted 1:2000). Subsequently, the blots membranes were developed with LumiGLO chemiluminescent substrate peroxide (Cell Signaling Technology).
Membranes were stripped with a stripping buffer (100 mM 2-mercaptoethanol, 2% SDS, and 62.5 mM Tris/HCl pH 6.7) for 30 min at 30° C. The blots were reprobed with anti-p44/42 MAPK, anti-p38 MAPK, or anti-SAPK/JNK antibody (diluted 1:1000 for each), followed by anti-rabbit-IgG HRP secondary antibody (diluted 1:2000). […] Western blot images were scanned and analyzed on NIH Image J software (18).
The […] phosphorylation of NF-κB p65 was measured by Western blotting. The band intensity was calculated with NIH Image J software.

[4] = in vivo; cited from earlier work
[5] = Ferret activity, appetite and weight after tracheal LPS with and without dapsone; format: in vivo; settings: LPS 5 days, 5-day dapsone treatment (oral or nebulized) vs vehicle
Protocol: (§1) Twenty adult male ferrets (weight, 1.3 to 2.0 kg) were obtained from Marshall Farms (Rose, N.Y.). Ferrets were anesthetized with 40 mg/kg ketamine and 5 mg/kg xylazine, and exposed to endotoxin for 30 min once daily for 5 days by incubating with a 3.0 uncuffed endotracheal tube (ETT) coated with 10 mg of LPS mixed in 300 μl water soluble K-Y jelly (Johnson & Johnson, New Brunswick, N.J.) (Abanses et al., 2009). As controls, K-Y jelly without LPS was used in two ferrets.
(§2) This is equivalent to the oral dose used to treat persons with skin disease. For aerosol inhalation, ferrets were shallowly intubated with ETT, which was placed 1 cm below the larynx. […] Ferrets (body weight 1.5 kg) have 0.3-0.4 ml total lung lining fluid volume. Therefore, the dose delivered to the lung, is estimated to be 0.1 to 1.0 μg in this system given reported nebulization efficiency.

[6] = system: IL-8 secretion from NHBE cells; test: LPS-induced IL-8 secretion from NHBE cells in culture (ELISA); format: cell-based, human
Protocol: NHBE cells (Lonza Walkersville, Walkersville, Md.) were plated at 3,500 cells/cm^2 in culture dishes in bronchial epithelial cell growth medium (BEGM) supplemented with the SingleQuot® kit (Lonza) without antibiotics and cultured at 37° C. in a 5% CO2 incubator. We used endotoxin-free media (<0.005 endotoxin units/ml) and second-passage cells for all experiments. Cells were grown to confluence for 6 days. Cultures without antibiotics were then transferred to 6-well or 35 mm dishes coated with type 1 rat-tail collagen and seeded at 3,500 cells/cm^2. The medium was changed every 24 h. To avoid influence of growth factors on cell signaling and IL-8 secretion, cells were cultured in supplement-free bronchial epithelial cell basal medium (BEBM) for 24 h before stimulation. We evaluated cell response at the time of cell confluence rather than normalize to the relative number of cells because cell maturation could affect cell signaling and cytokine secretion, and at confluence, all cells are at similar growth stages. Culture supernatants were collected and centrifuged for 5 min at 200×g and stored at −20° C. until assayed. IL-8 was measured by ELISA (Beckman Coulter, Inc., Brea, Calif.) according to the manufacturer's instructions. Concentrations in each sample were obtained by interpolation from standard curves, and calculated as the mean of the results at the sample dilution. […] We chose to assess cell response at the time of cell confluence rather than normalize to the relative number of cells, because cell maturation could potentially affect cell signaling and cytokine secretion, and at confluence, all cells are at similar growth stages.

[7] = system: ERK1/2 phosphorylation in NHBE cells; test: LPS-induced phosphorylation of MAPKs (Western blotting); format: cell-based, human
Protocol: Membranes were stripped with a stripping buffer (100 mM 2-mercaptoethanol, 2% SDS, and 62.5 mM Tris/HCl pH 6.7) for 30 min at 30° C. The blots were reprobed with anti-p44/42 MAPK, anti-p38 MAPK, or anti-SAPK/JNK antibody (diluted 1:1000 for each), followed by anti-rabbit-IgG HRP secondary antibody (diluted 1:2000). To correct small differences in loading for NF-κB p65, blots were stripped, and reprobed with anti-human β-actin antibody (diluted 1:5000), followed by anti-mouse IgG HRP secondary antibody (diluted 1:5000). Western blot images were scanned and analyzed on NIH Image J software (18).

[8] = system: IL-8 mRNA expression in NHBE cells; test: IL-8 mRNA expression by real-time quantitative PCR; format: cell-based, human; settings: 4 h
Protocol: For the relative quantification of IL-8 mRNA expression, the expression of glyceraldehyde-3-phosphate dehydrogenase (GAPDH) was served as an internal control. EvaGreen was used as a DNA intercalator dye to monitor amplified DNA quantification, and real-time quantitative PCR curves were analyzed by the CFX Manager™ software (Bio-Rad) in order to obtain threshold cycle (Ct) values for each sample. Quantification was based on a standard curve. Appropriate IL-8 and GADPH forward and reverse primers were used.

[9] = system: apical and basolateral IL-8 secretion from ALI-conditioned NHBE cells; test: IL-8 secretion from NHBE cells cultured under air-liquid interface (ALI) condition; format: cell-based, human; settings: dapsone 1 μg/ml in basolateral medium, LPS 10 μg/ml 24 h
Protocol: For NHBE cell differentiation, cells were plated at 2.0×10^5 cells/cm^2 onto polycarbonate inserts of 6.5-mm diameter, 0.4-μm pore size and 10-μm thickness (Costar Transwell Clear, Cambridge, Mass., USA) coated with type 1 rat-tail collagen, and cultured with serum-free DMEM/F12 medium containing ITS-A (1.0%; Invitrogen Co., Carlsbad, Calif.), epidermal growth factor (EGF) (recombinant human EGF, 0.5 ng/ml; Invitrogen Co.), triiodothyronine (10 ng/ml; […] Sigma-Aldrich), bovine serum albumin (2.0 μg/ml; Sigma-Aldrich) and bovine pituitary extract (30 μg/ml; Invitrogen Co.). After achieving confluence, the apical medium was removed, and cells were cultured with an air-liquid-interface (ALI) method. The culture medium was changed every 48 h, and cells were maintained at 37° C. in a 5% CO2, for 10-14 days. Culture supernatants were collected and centrifuged for 5 min at 200×g and stored at −20° C. until assayed. IL-8 was measured by ELISA (Beckman Coulter, Inc., Brea, Calif.) according to the manufacturer's instructions. Concentrations in each sample were obtained by interpolation from standard curves, and calculated as the mean of the results at the sample dilution. […] NHBE cells were stimulated with LPS from the apical (AP-LPS) or basolateral side (BL-LPS) for 24 h, and IL-8 secretion levels in both chambers were measured. […]

[10] = system: LPS-inflamed ferret trachea; test: Mucociliary transport (MCT) on excised tracheal segments; format: in vivo; settings: 5 days
Protocol: as §1
as §2, with “efficiency. […]” for “efficiency.”
A tracheal segment was placed on a piece of gauze saturated with Ringer's solution in a chamber in which the relative humidity was maintained at 95 to 100% and the temperature was maintained at 22° C. to 24° C. MCT was measured by focusing a tracheal segment under a microscope with gradicule (grid line) eyepiece and recording the transport time of the leading edge of very fine shavings of plastic that were placed on the tracheal epithelium. […]

[11] = system: LPS-inflamed ferret trachea; test: Intraepithelial neutrophil accumulation in LPS-inflamed ferret trachea; format: in vivo; settings: 5 days
IL-8 release from NHEK = settings: cited from earlier work

Nc1ccc(S(=O)(=O)c2ccc(N)cc2)cc1 [dapsone, 4,4′-diaminodiphenyl sulfone]
growth of ALI-conditioned NHBE cells ([1]; dapsone 3 μg/ml, no IL-13): no measurable effect | amount and extent of IL-13 induced goblet cell hyperplasia ([1]; dapsone 10 μg/ml, vs control cell cultures): decreased | patients able to substantially reduce or stop taking steroids [2]: 9 out of 10 | NF-κB p65 activation ([3]; dapsone 0.3 μg/mL): did not significantly inhibit | LPS-induced NF-κB p65 phosphorylation ([3]; dapsone 1 μg/ml, LPS 10 μg/ml, 15 min to 2 h, to the control level): significantly inhibited | dose dependence of inhibition of NF-κB p65 phosphorylation ([3]; dapsone 0.3, 1 and 10 μg/ml (P=0.16 for 0.3; P<0.01 for 1 and 10 μg/ml)): dose-dependent | therapeutic serum levels [4]: 0.5 to 5 µg/mL | ferret activity or appetite [5]: no measurable effect | ferret weight over 9 days [5]: no difference | basal IL-8 secretion ([6]; dapsone 1 μg/ml, 48 and 72 h, no LPS): did not affect | LPS-induced IL-8 secretion over time ([6]; dapsone 1 μg/ml, LPS 10 μg/ml, up to 72 h): significantly and persistently decreased | LPS-induced IL-8 secretion ([6]; dapsone 0.3, 1 or 10 μg/ml, LPS 10 μg/ml, 24 h, P<0.01 for each): suppressed | LPS-induced ERK1/2 phosphorylation at 1 h ([7]; dapsone 1 μg/ml, LPS 10 μg/ml, 1 h, P<0.05): inhibited | LPS-induced ERK1/2 phosphorylation after 4 h ([7]; dapsone 1 μg/ml, LPS 10 μg/ml, after 4 h): this effect disappeared | basal IL-8 mRNA level ([8]; dapsone 1 μg/ml): did not influence | LPS-induced IL-8 mRNA over expression ([8]; dapsone 1 and 10 μg/ml, LPS 10 μg/ml, P<0.05 for each): significantly inhibited | basolateral IL-8 increased by AP- or BL-LPS ([9]; P<0.001 AP-LPS, P<0.01 BL-LPS): inhibited | apical IL-8 level increased by AP-LPS ([9]; P<0.05): inhibited | MCT velocity ([10]; aerosol dapsone 0.5 mg/ml, 15 min once daily, P=0.007 vs LPS control, normal approximately 7 mm/min): 6 mm/min | MCT ([10]; oral dapsone 2 mg/kg daily, P=0.09, LPS alone 1-3 mm/minute): the increase was not significant | neutrophil accumulation in tracheal epithelium ([11]; nebulized dapsone 0.5 mg/ml, 15 min once daily, P<0.05): significantly inhibited | neutrophil recruitment in tracheal epithelium ([11]; oral dapsone 2 mg/kg daily, P=0.3): tended to inhibit | basal IL-8 level (IL-8 release from NHEK; NHEK): did not depress | bullous pemphigoid IgG-mediated IL-8 release (IL-8 release from NHEK; dapsone in a therapeutic concentration): inhibited

COc1cccc(-c2cc(=O)c3ccccc3o2)c1N [PD98059, 2′-amino-3′-methoxyflavone]
LPS-induced IL-8 secretion ([6]; PD98059 20 μM added 1 h before LPS): did not inhibit | LPS-induced ERK1/2 phosphorylation ([7]; PD98059 20 μM added 1 h before LPS 10 μg/ml, 4 h): abolished

C[C@@H]1C[C@H]2[C@@H]3CCC4=CC(=O)C=C[C@]4(C)[C@@]3(F)[C@@H](O)C[C@]2(C)[C@@]1(O)C(=O)CO [DEX, dexamethasone]
decrease of basal IL-8 mRNA level ([8]; DEX 0.1 μg/ml, P<0.05): ~40%

— patent US20150040894A1 (VIRGINIA COMMONWEALTH UNIVERSITY, priority 2010, published 2015)
